Results published in patent US12171230B2, “Herbicidal compositions” (Bayer Aktiengesellschaft, priority 2018, dated 2024).

Key:
Assay type in all cases: in vivo
Phalaris minor [1] = assay: Post-emergence herbicidal action against Phalaris minor
Viola tricolor [2] = assay: Post-emergence herbicidal action against Viola tricolor
Galium aparine = assay: Post-emergence herbicidal action against Galium aparine
Experimental: (§1) When the observed efficacies exceed the formal sum total of the values of the tests with individual applications, they also exceed the expected value according to Colby, which is calculated using the formula below and is likewise regarded as an indication of synergism (cf. S. R. Colby; in Weeds 15 (1967) p. 20 to 22): E^C=A+B−([…])
(§2) Here: • A=efficacy of the active compound (A) in % at an application rate of a g a.i./ha; • B=efficacy of the active compound (B) in % at an application rate of b g a.i./ha; • E^C=expected value of the effect of the combination (A)+(B) in % at the combined application rate a+b g a.i./ha.
(§3) Seeds or rhizome pieces of mono- and dicotyledonous weeds are placed in sandy loam in pots, covered with soil and grown in a greenhouse under good growth conditions (temperature, air humidity, water supply). Three weeks after sowing, the test plants were treated at the three-leaf stage with the compositions according to the invention. The compositions according to the invention formulated as spray powders or as emulsion concentrates were sprayed onto the green plant parts in various dosages with an application rate of 300 to 800 l/ha of water (equivalent). After the test plants have been left to stand in the greenhouse under optimal growth conditions for about 3 to 4 weeks, the action of the preparations is scored visually in comparison to untreated controls. The compositions according to the invention also have good post-emergence herbicidal activity against a broad spectrum of economically important gramineous and broadleaf weeds.

Lamium purpureum = assay: Post-emergence herbicidal action against Lamium purpureum
Experimental: as §1, §2, §3

Matricaria inodora = assay: Post-emergence herbicidal action against Matricaria inodora; conditions: for Herbicidal action: 450 g a.i./ha
Poa annua = assay: Post-emergence herbicidal action against Poa annua; conditions: for Herbicidal action: 14 DAT
Experimental: as §1, §2, §3

Bromus sterilis [3] = assay: Post-emergence herbicidal action against Bromus sterilis
Alopecurus myosuroides = assay: Post-emergence herbicidal action against Alopecurus myosuroides
Centaurea cyano = assay: Post-emergence herbicidal action against Centaurea cyano
Experimental: Seeds or rhizome pieces of mono- and dicotyledonous weeds are placed in sandy loam in pots, covered with soil and grown in a greenhouse under good growth conditions (temperature, air humidity, water supply). Three weeks after sowing, the test plants were treated at the three-leaf stage with the compositions according to the invention. The compositions according to the invention formulated as spray powders or as emulsion concentrates were sprayed onto the green plant parts in various dosages with an application rate of 300 to 800 l/ha of water (equivalent).

Lolium rigidum [4] = assay: Post-emergence herbicidal action against Lolium rigidum
[5] = test system: Lolium rigidum (resistant biotype); assay: Post-emergence herbicidal action against Lolium rigidum (resistant biotype)
Lolium rigidum [6] = assay: Post-emergence herbicidal action against Lolium rigidum; remark: listed apart in the source
Viola tricolor [7] = assay: Post-emergence herbicidal action against Viola tricolor; remark: listed apart in the source
Phalaris minor [8] = assay: Post-emergence herbicidal action against Phalaris minor; remark: listed apart in the source
Bromus sterilis [9] = assay: Post-emergence herbicidal action against Bromus sterilis; conditions: 14 DAT; 50 g a.i./ha

SMILES: CC(C)C1(C)N=C(c2ncccc2C(=O)O)NC1=O (stereo not drawn) [(B4.13) Imazapyr]
- Herbicidal action in [%] 14 DAT against Phalaris minor (Phalaris minor [1]; 0.5 g of a.i./ha): 0%
- Herbicidal action in [%] 28 DAT against Phalaris minor (Phalaris minor [1]; 0.5 g of a.i./ha): 0%
- Herbicidal action in [%] 14 DAT against Phalaris minor (Phalaris minor [1]; 1.5 g of a.i./ha): 0%
- Herbicidal action in [%] 28 DAT against Phalaris minor (Phalaris minor [1]; 1.5 g of a.i./ha): 10%
- Herbicidal action in [%] 14 DAT against Phalaris minor (Phalaris minor [1]; 4.5 g of a.i./ha): 25%
- Herbicidal action in [%] 28 DAT against Phalaris minor (Phalaris minor [1]; 4.5 g of a.i./ha): 20%
- Herbicidal action in [%] 14 DAT against Viola tricolor (Viola tricolor [2]; 0.5 g of a.i./ha): 10%
- Herbicidal action in [%] 14 DAT against Viola tricolor (Viola tricolor [2]; 1.5 g of a.i./ha): 40%
- Herbicidal action in [%] 28 DAT against Viola tricolor (Viola tricolor [2]; 1.5 g of a.i./ha): 20%
- Herbicidal action in [%] 14 DAT against Viola tricolor (Viola tricolor [2]; 4.5 g of a.i./ha): 40%
- Herbicidal action in [%] 28 DAT against Viola tricolor (Viola tricolor [2]; 4.5 g of a.i./ha): 15%
- Herbicidal action in [%] 28 DAT against Galium aparine (Galium aparine; 0.5 g of a.i./ha): 30%
- Herbicidal action in [%] 14 DAT against Galium aparine (Galium aparine; 1.5 g of a.i./ha): 40%
- Herbicidal action in [%] 28 DAT against Galium aparine (Galium aparine; 1.5 g of a.i./ha): 50%
- Herbicidal action in [%] 14 DAT against Galium aparine (Galium aparine; 4.5 g of a.i./ha): 25%
- Herbicidal action in [%] 28 DAT against Galium aparine (Galium aparine; 4.5 g of a.i./ha): 40%
- Herbicidal action in [%] 14 DAT against Lamium purpureum L. (Lamium purpureum; 0.5 g of a.i./ha): 0%
- Herbicidal action in [%] 28 DAT against Lamium purpureum L. (Lamium purpureum; 0.5 g of a.i./ha): 0%
- Herbicidal action in [%] 14 DAT against Lamium purpureum L. (Lamium purpureum; 1.5 g of a.i./ha): 25%
- Herbicidal action in [%] 28 DAT against Lamium purpureum L. (Lamium purpureum; 1.5 g of a.i./ha): 0%
- Herbicidal action in [%] 14 DAT against Lamium purpureum L. (Lamium purpureum; 4.5 g of a.i./ha): 40%
- Herbicidal action in [%] 28 DAT against Lamium purpureum L. (Lamium purpureum; 4.5 g of a.i./ha): 20%
- Herbicidal action in [%] 14 DAT against Matricaria inodora (Matricaria inodora; 0.5 g of a.i./ha): 0%
- Herbicidal action in [%] 28 DAT against Matricaria inodora (Matricaria inodora; 0.5 g of a.i./ha): 0%
- Herbicidal action in [%] 28 DAT against Matricaria inodora (Matricaria inodora; 4.5 g of a.i./ha): 20%
- Herbicidal action in [%] 28 DAT against Poa annua L. (Poa annua; 0.5 g of a.i./ha): 0%
- Herbicidal action in [%] 14 DAT against Poa annua L. (Poa annua; 1.5 g of a.i./ha): 0%
- Herbicidal action in [%] 28 DAT against Poa annua L. (Poa annua; 1.5 g of a.i./ha): 15%
- Herbicidal action in [%] 14 DAT against Poa annua L. (Poa annua; 4.5 g of a.i./ha): 0%
- Herbicidal action in [%] 28 DAT against Poa annua L. (Poa annua; 4.5 g of a.i./ha): 20%
- Herbicidal action in [%] 14 DAT against Bromus sterilis (Bromus sterilis [3]; 0.5 g of a.i./ha): 0%
- Herbicidal action in [%] 14 DAT against Bromus sterilis (Bromus sterilis [3]; 1.5 g of a.i./ha): 0%
- Herbicidal action in [%] 28 DAT against Bromus sterilis (Bromus sterilis [3]; 1.5 g of a.i./ha): 10%
- Herbicidal action in [%] 14 DAT against Bromus sterilis (Bromus sterilis [3]; 4.5 g of a.i./ha): 25%
- Herbicidal action in [%] 28 DAT against Bromus sterilis (Bromus sterilis [3]; 4.5 g of a.i./ha): 15%
- Herbicidal action in [%] 14 DAT against Alopecurus myosuroides (Alopecurus myosuroides; 1.5 g of a.i./ha): 10%
- Herbicidal action in [%] 14 DAT against Alopecurus myosuroides (Alopecurus myosuroides; 4.5 g of a.i./ha): 20%
- Herbicidal action in [%] 28 DAT against Alopecurus myosuroides (Alopecurus myosuroides; 4.5 g of a.i./ha): 20%
- Herbicidal action in [%] 14 DAT against Centaurea cyanus (Centaurea cyano; 4.5 g of a.i./ha): 10%
- Herbicidal action in [%] 28 DAT against Centaurea cyanus (Centaurea cyano; 4.5 g of a.i./ha): 25%
- Herbicidal action in [%] 14 DAT against Lolium rigidum (Lolium rigidum [4]; 1.5 g of a.i./ha): 0%
- Herbicidal action in [%] 28 DAT against Lolium rigidum (Lolium rigidum [4]; 1.5 g of a.i./ha): 0%
- Herbicidal action in [%] 14 DAT against Lolium rigidum (Lolium rigidum [4]; 4.5 g of a.i./ha): 20%
- Herbicidal action in [%] 28 DAT against Lolium rigidum (Lolium rigidum [4]; 4.5 g of a.i./ha): 15%
- Herbicidal action in [%] 14 DAT against Lolium rigidum (resistant biotype) ([5]; 0.5 g of a.i./ha): 0%
- Herbicidal action in [%] 14 DAT against Lolium rigidum (resistant biotype) ([5]; 1.5 g of a.i./ha): 10%
- Herbicidal action in [%] 28 DAT against Lolium rigidum (resistant biotype) ([5]; 1.5 g of a.i./ha): 0%
- Herbicidal action in [%] 14 DAT against Lolium rigidum (resistant biotype) ([5]; 4.5 g of a.i./ha): 15%
- Herbicidal action in [%] 28 DAT against Lolium rigidum (resistant biotype) ([5]; 4.5 g of a.i./ha): 15%

SMILES: CP(=O)(O)CCC(N)C(=O)O (stereo not drawn) [(7.4) Glufosinate]
- Herbicidal action (Lolium rigidum [6]; 14 DAT, 150 g a.i./ha): 50%
- Herbicidal action (Lolium rigidum [6]; 14 DAT, resistant biotype, 150 g a.i./ha): 30%
- Herbicidal action (Lolium rigidum [6]; 28 DAT, 150 g a.i./ha): 30%
- Herbicidal action (Lolium rigidum [6]; 28 DAT, resistant biotype, 150 g a.i./ha): 30%
- Herbicidal action (Lolium rigidum [6]; 28 DAT, resistant biotype, 450 g a.i./ha): 50%
- Herbicidal action (Viola tricolor [7]; 14 DAT, 150 g a.i./ha): 80%
- Herbicidal action (Viola tricolor [7]; 28 DAT, 50 g a.i./ha): 20%
- Herbicidal action (Viola tricolor [7]; 28 DAT, 150 g a.i./ha): 50%
- Herbicidal action (Viola tricolor [7]; 28 DAT, 450 g a.i./ha): 60%
- Herbicidal action (Galium aparine; 28 DAT, 50 g a.i./ha): 0%
- Herbicidal action (Matricaria inodora; 14 DAT): 90%
- Herbicidal action (Matricaria inodora; 28 DAT): 85%
- Herbicidal action (Poa annua; 50 g a.i./ha): 10%
- Herbicidal action (Poa annua; 150 g a.i./ha): 30%
- Herbicidal action (Poa annua; 450 g a.i./ha): 40%
- Herbicidal action (Phalaris minor [8]; 14 DAT, 50 g a.i./ha): 0%
- Herbicidal action (Phalaris minor [8]; 14 DAT, 150 g a.i./ha): 30%
- Herbicidal action (Phalaris minor [8]; 28 DAT, 50 g a.i./ha): 0%
- Herbicidal action (Phalaris minor [8]; 28 DAT, 150 g a.i./ha): 10%
- Herbicidal action (Phalaris minor [8]; 28 DAT, 450 g a.i./ha): 30%
- Herbicidal action (Bromus sterilis [9]): 0%
- Herbicidal action (Centaurea cyano; 14 DAT, 50 g a.i./ha): 30%
- Herbicidal action (Centaurea cyano; 28 DAT, 450 g a.i./ha): 60%
